Measured values as given in patent US12497428B2, “Galactoside inhibitor of galectins” (GALECTO BIOTECH AB, priority 2018, dated 2025).
≈ marks a conversion by molar mass, not a printed value.

Columns and labels:
Galectin-1 = Galectin-1 (Homo sapiens, UniProt P09382); test: Fluorescence anisotropy assay, inhibition of galectin / fluorescein tagged saccharide probe interaction; format: binding
Protocol: (§1) The affinity of Example 1-28 for galectins were determined by a fluorescence anisotropy assay where the compound was used as an inhibitor of the interaction between galectin and a fluorescein tagged saccharide probe as described Sörme, P., Kahl-Knutsson, B., Huflejt, M., Nilsson, U. J., and Leffler H. (2004) Fluorescence polarization as an analytical tool to evaluate galectin-ligand interactions. Anal. Biochem. 334: 36-47, (Sörme et al., 2004) and Monovalent interactions of Galectin-1 By Salomonsson, Emma; Larumbe, Amaia; Tejler, Johan; Tullberg, Erik; Rydberg, Hanna; Sundin, Anders; Khabut, Areej; Frejd, Torbjorn; Lobsanov, Yuri D.; Rini, James M.; et al, From Biochemistry (2010), 49(44), 9518-9532, (Salomonsson et al., 2010).

Galectin-3 = Galectin-3 (Homo sapiens, UniProt P17931); test: as above; format: binding
Protocol: as §1

Aqueous solubility = format: physicochemical

Sequence of Galectin-3 (P17931 whole entry): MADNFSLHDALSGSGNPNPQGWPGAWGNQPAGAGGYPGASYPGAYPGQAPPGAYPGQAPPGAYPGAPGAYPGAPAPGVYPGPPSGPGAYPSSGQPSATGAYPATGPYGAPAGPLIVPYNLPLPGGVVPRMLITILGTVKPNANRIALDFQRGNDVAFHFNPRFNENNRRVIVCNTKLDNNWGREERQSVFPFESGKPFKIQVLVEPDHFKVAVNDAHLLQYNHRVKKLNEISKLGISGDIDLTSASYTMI
Sequence of Galectin-1 (P09382 whole entry): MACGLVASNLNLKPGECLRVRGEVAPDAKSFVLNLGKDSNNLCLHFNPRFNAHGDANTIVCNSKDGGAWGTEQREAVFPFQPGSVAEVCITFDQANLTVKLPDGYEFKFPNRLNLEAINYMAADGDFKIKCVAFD

SMILES | Kd (Galectin-1) | Kd (Galectin-3) | solubility (Aqueous solubility)
OC[C@H]1O[C@H](Sc2cncc(Br)c2)[C@H](OCc2cc(F)c(O)c(F)c2)[C@@H](n2cc(-c3cc(F)c(F)c(F)c3)nn2)[C@H]1O [Example 11, 5-Bromopyridin-3-yl 3-deoxy-3-[4-(3,4,5-trifluorophenyl)-1H-1,2,3-triazol-1-yl]-2-O-(3,5-difluoro-4-hydroxybenzyl)-1-thio-α-D-galactopyranoside] | 260 nM | 17 nM | 
OC[C@H]1O[C@H](Sc2cncc(Br)c2)[C@H](OCc2nccs2)[C@@H](n2cc(-c3cc(F)c(F)c(F)c3)nn2)[C@H]1O [Example 23, 5-Bromopyridin-3-yl 3-deoxy-3-[4-(3,4,5-trifluorophenyl)-1H-1,2,3-triazol-1-yl]-2-O-[(thiazol-2-yl)methyl]-1-thio-α-D-galactopyranoside] | 2600 nM | 41 nM | 
Cn1ccnc1CO[C@@H]1[C@@H](n2cc(-c3cc(F)c(F)c(F)c3)nn2)[C@@H](O)[C@@H](CO)O[C@@H]1Sc1cncc(Br)c1 [Example 16, 5-Bromopyridin-3-yl 3-deoxy-3-[4-(3,4,5-trifluorophenyl)-1H-1,2,3-triazol-1-yl]-2-O-[(1-methyl-1H-imidazol-2-yl)methyl]-1-thio-α-D-galactopyranoside] | 6400 nM | 57 nM | 
OC[C@H]1O[C@H](Sc2cncc(Br)c2)[C@H](OCc2nnn[nH]2)[C@@H](n2cc(-c3cc(F)c(F)c(F)c3)nn2)[C@H]1O [Example 12, 5-Bromopyridin-3-yl 3-deoxy-3-[4-(3,4,5-trifluorophenyl)-1H-1,2,3-triazol-1-yl]-2-O-[(1H-tetrazol-5-yl)methyl]-1-thio-α-D-galactopyranoside] | 2400 nM | 16 nM | 
CN(C)C(=O)c1ccc(Cl)cc1S[C@H]1OC(CO)[C@H](O)C(n2cc(-c3cc(F)c(F)c(F)c3)nn2)C1OCc1nnn[nH]1 (stereo partly drawn) [Example 25, 4-Chloro-N,N-dimethyl-benzamide-2-yl 3-deoxy-3-[4-(3,4,5-trifluorophenyl)-1H-1,2,3-triazol-1-yl]-2-O-[(1H-tetrazol-5-yl)methyl]-1-thio-α-D-galactopyranoside] | 1200 nM | 4 nM | 
OCC1O[C@H](Sc2ccc(Cl)c(Cl)c2)C(OCc2nnn[nH]2)C(n2cc(-c3cc(F)c(Cl)c(F)c3)nn2)[C@H]1O (stereo in doubt) [Example 13, 3,4-Dichlorphenyl 3-[4-(4-chloro-3,5-difluorophenyl)-1H-1,2,3-triazol-1-yl]-3-deoxy-2-O-[(1H-tetrazol-5-yl)methyl]-1-thio-α-D-galactopyranoside] | 1400 nM | 64 nM | 
O=P(O)(O)OCO[C@@H]1[C@@H](n2cc(-c3cc(F)c(F)c(F)c3)nn2)[C@@H](O)[C@@H](CO)O[C@@H]1Sc1cncc(Br)c1 [Example 5, 5-Bromopyridin-3-yl 3-deoxy-3-[4-(3,4,5-trifluorophenyl)-1H-1,2,3-triazol-1-yl]-2-O-[(phosphonooxy)methyl]-1-thio-α-D-galactopyranoside] | 3830 nM | 12 nM | > 10000 µg/mL
OC[C@H]1O[C@H](Sc2cncc(Br)c2)[C@H](OCc2ncco2)[C@@H](n2cc(-c3cc(F)c(F)c(F)c3)nn2)[C@H]1O [Example 17, 5-Bromopyridin-3-yl 3-deoxy-3-[4-(3,4,5-trifluorophenyl)-1H-1,2,3-triazol-1-yl]-2-O-[(oxazol-2-yl)methyl]-1-thio-α-D-galactopyranoside] | 2800 nM | 24 nM | 
CC(OC1C(n2cc(-c3cc(F)c(F)c(F)c3)nn2)[C@@H](O)C(CO)O[C@@H]1Sc1cncc(Br)c1)C(=O)O (single isomer, unassigned; diastereomer 2) [Example 28] | 6400 nM | 6 nM | 
OC[C@H]1O[C@H](Sc2cncc(Br)c2)[C@H](OCc2cncs2)[C@@H](n2cc(-c3cc(F)c(F)c(F)c3)nn2)[C@H]1O [Example 22, 5-Bromopyridin-3-yl 3-deoxy-3-[4-(3,4,5-trifluorophenyl)-1H-1,2,3-triazol-1-yl]-2-O-[(thiazol-5-yl)methyl]-1-thio-α-D-galactopyranoside] | 1900 nM | 21 nM | 

Continued, values first:

Kd (Galectin-1) | Kd (Galectin-3) | solubility (Aqueous solubility) | SMILES
5400 nM |  |  | O=P(O)(O)O[C@@H]1[C@@H](n2cc(-c3cc(F)c(F)c(F)c3)nn2)[C@@H](O)[C@@H](CO)O[C@@H]1Sc1cncc(Br)c1 [Example 1, 5-Bromopyridin-3-yl 3-deoxy-3-[4-(3,4,5-trifluorophenyl)-1H-1,2,3-triazol-1-yl]-2-O-phospho-1-thio-α-D-galactopyranoside]
6500 nM | 15 nM |  | CC(OC1C(n2cc(-c3cc(F)c(F)c(F)c3)nn2)[C@@H](O)C(CO)O[C@@H]1Sc1cncc(Br)c1)C(=O)O (single isomer, unassigned; diastereomer 1) [Example 27]
1800 nM | 8 nM |  | OCC1O[C@H](Sc2ccc(Cl)c(Cl)c2)C(OCc2nnn[nH]2)C(n2cc(-c3cc(F)c(F)c(F)c3)nn2)[C@H]1O (stereo in doubt) [Example 14, 3,4-Dichlorphenyl 3-deoxy-3-[4-(3,4,5-trifluorophenyl)-1H-1,2,3-triazol-1-yl]-2-O-[(1H-tetrazol-5-yl)methyl]-1-thio-α-D-galactopyranoside]
8600 nM | 18 nM |  | OC[C@H]1O[C@H](Sc2cncc(Br)c2)[C@H](OCc2cscn2)[C@@H](n2cc(-c3cc(F)c(F)c(F)c3)nn2)[C@H]1O [Example 21, 5-Bromopyridin-3-yl 3-deoxy-3-[4-(3,4,5-trifluorophenyl)-1H-1,2,3-triazol-1-yl]-2-O-[(thiazol-4-yl)methyl]-1-thio-α-D-galactopyranoside]
1800 nM | 7 nM | 1800 µg/mL (≈ 3.04 mM) | O=C(O)CO[C@@H]1[C@@H](n2cc(-c3cc(F)c(F)c(F)c3)nn2)[C@@H](O)[C@@H](CO)O[C@@H]1Sc1cncc(Br)c1 [Example 8, 5-Bromopyridin-3-yl 2-O-carboxymethyl-3-deoxy-3-[4-(3,4,5-trifluorophenyl)-1H-1,2,3-triazol-1-yl]-1-thio-α-D-galactopyranoside]
3700 nM | 14 nM |  | CN(C)C(=O)c1ccc(Cl)cc1S[C@H]1OC(CO)[C@H](O)C(n2cc(-c3cc(F)c(F)c(F)c3)nn2)C1OCc1cscn1 (stereo partly drawn) [Example 24, 4-Chloro-N,N-dimethyl-benzamide-2-yl 3-deoxy-3-[4-(3,4,5-trifluorophenyl)-1H-1,2,3-triazol-1-yl]-2-O-[(thiazol-4-yl)methyl]-1-thio-α-D-galactopyranoside]
 | 17 nM |  | O=C(O)CO[C@@H]1[C@@H](n2cc(-c3cc(F)c(F)c(F)c3)nn2)[C@@H](O)[C@@H](CO)O[C@@H]1Sc1ccc(Cl)c(Cl)c1 [Example 6, 3,4-Dichlorphenyl 2-O-carboxymethyl-3-deoxy-3-[4-(3,4,5-trifluorophenyl)-1H-1,2,3-triazol-1-yl]-1-thio-α-D-galactopyranoside]
9500 nM | 7 nM |  | OC[C@H]1O[C@H](Sc2cncc(Br)c2)[C@H](OCc2ncc[nH]2)[C@@H](n2cc(-c3cc(F)c(F)c(F)c3)nn2)[C@H]1O [Example 15, 5-Bromopyridin-3-yl 3-deoxy-3-[4-(3,4,5-trifluorophenyl)-1H-1,2,3-triazol-1-yl]-2-O-[(1H-imidazol-2-yl)methyl]-1-thio-α-D-galactopyranoside]
9200 nM | 24 nM |  | OC[C@H]1O[C@H](Sc2cncc(Br)c2)[C@H](OCc2cocn2)[C@@H](n2cc(-c3cc(F)c(F)c(F)c3)nn2)[C@H]1O [Example 10, 5-Bromopyridin-3-yl 3-deoxy-3-[4-(3,4,5-trifluorophenyl)-1H-1,2,3-triazol-1-yl]-2-O-(oxazol-4-ylmethyl)-1-thio-α-D-galactopyranoside]
29700 nM | 87 nM |  | OCC1O[C@H](Sc2ccc(Cl)c(Cl)c2)C(OCc2cocn2)C(n2cc(-c3cc(F)c(Cl)c(F)c3)nn2)[C@H]1O (stereo partly drawn) [Example 20, 3,4-Dichlorphenyl 3-[4-(4-chloro-3,5-difluorophenyl)-1H-1,2,3-triazol-1-yl]-3-deoxy-2-O-[(oxazol-4-yl)methyl]-1-thio-α-D-galactopyranoside]
14800 nM | 130 nM |  | OC[C@H]1O[C@H](Sc2cncc(Br)c2)[C@H](OCc2cnco2)[C@@H](n2cc(-c3cc(F)c(F)c(F)c3)nn2)[C@H]1O [Example 18, 5-Bromopyridin-3-yl 3-deoxy-3-[4-(3,4,5-trifluorophenyl)-1H-1,2,3-triazol-1-yl]-2-O-[(oxazol-5-yl)methyl]-1-thio-α-D-galactopyranoside]
3150 nM | 3 nM |  | O=S(=O)(O)O[C@@H]1[C@@H](n2cc(-c3cc(F)c(F)c(F)c3)nn2)[C@@H](O)[C@@H](CO)O[C@@H]1Sc1cncc(Br)c1 [Example 4, 5-Bromopyridin-3-yl 3-deoxy-3-[4-(3,4,5-trifluorophenyl)-1H-1,2,3-triazol-1-yl]-2-O-sulfo-1-thio-α-D-galactopyranside]
2900 nM | 32 nM |  | OC[C@H]1O[C@H](Sc2cncc(Br)c2)[C@H](OCc2ccon2)[C@@H](n2cc(-c3cc(F)c(F)c(F)c3)nn2)[C@H]1O [Example 19, 5-Bromopyridin-3-yl 3-deoxy-3-[4-(3,4,5-trifluorophenyl)-1H-1,2,3-triazol-1-yl]-2-O-[(isoxazol-3-yl)methyl]-1-thio-α-D-galactopyranoside]
1500 nM | 10 nM |  | O=C(O)CCCO[C@@H]1[C@@H](n2cc(-c3cc(F)c(F)c(F)c3)nn2)[C@@H](O)[C@@H](CO)O[C@@H]1Sc1cncc(Br)c1 [Example 26, 5-Bromopyridin-3-yl 2-O-carboxypropyl-3-deoxy-3-[4-(3,4,5-trifluorophenyl)-1H-1,2,3-triazol-1-yl]-1-thio-α-D-galactopyranoside]
